Laboratory results: the NIST ThermoML archive (doi:10.1016/j.jct.2019.04.005)
± gives the expanded uncertainty stated by the source.

Tests used:
[1] = 298.2 K; 101.33 kPa; Liquid; Vibrating tube method
[2] = refractive index (Na D-line) (dimensionless); conditions: 298.2 K; 101.33 kPa; Liquid; Standard Abbe refractometry
[3] = refractive index (Na D-line) (dimensionless); wn = mass fraction of the nth substance listed; conditions: 298.2 K; 100 kPa; Liquid; Standard Abbe refractometry; w1 = 0.85
[4] = wn = mass fraction of the nth substance listed; conditions: 298.2 K; 100 kPa; Liquid; Vibrating tube method; w1 = 0.85

mass density [1]	refractive index [2]	refractive index [3]	mass density [4]	Compound
803.77 ± 2.1 kg/m3	1.4101 ± 0.003	–	–	CC(C)CC(C)O (configuration not stated) [4-methyl-2-pentanol]
–	1.3325 ± 0.003	–	–	O [water]
–	–	1.432 ± 0.003	1682.7 ± 2.2 kg/m3	O=P(O)(O)O [phosphoric acid] + O
805.3 ± 2.1 kg/m3	1.4049 ± 0.003	–	–	CCCC(C)O (configuration not stated) [pentan-2-ol]
